Laboratory results: ChEMBL document CHEMBL3045608, “Docking simulations, synthesis, and anti-inflammatory activity evaluation of 2-(N-alkyl)amino-3-nitroimidazo[1,2-a]pyridines” (Med Chem Res, 2012)
Blank lines part the entries; values can stand above or below the compound they belong to. Activity calls are given as the source filed them. The calls are words filed in the database; no cut-off is given here.

Experiments:
[1] = biological target: Prostaglandin G/H synthase 1 (Homo sapiens) (UniProt P23219); assay: Binding affinity to COX1 (unknown origin)
Chain of Prostaglandin G/H synthase 1 (Homo sapiens) (P23219 whole entry): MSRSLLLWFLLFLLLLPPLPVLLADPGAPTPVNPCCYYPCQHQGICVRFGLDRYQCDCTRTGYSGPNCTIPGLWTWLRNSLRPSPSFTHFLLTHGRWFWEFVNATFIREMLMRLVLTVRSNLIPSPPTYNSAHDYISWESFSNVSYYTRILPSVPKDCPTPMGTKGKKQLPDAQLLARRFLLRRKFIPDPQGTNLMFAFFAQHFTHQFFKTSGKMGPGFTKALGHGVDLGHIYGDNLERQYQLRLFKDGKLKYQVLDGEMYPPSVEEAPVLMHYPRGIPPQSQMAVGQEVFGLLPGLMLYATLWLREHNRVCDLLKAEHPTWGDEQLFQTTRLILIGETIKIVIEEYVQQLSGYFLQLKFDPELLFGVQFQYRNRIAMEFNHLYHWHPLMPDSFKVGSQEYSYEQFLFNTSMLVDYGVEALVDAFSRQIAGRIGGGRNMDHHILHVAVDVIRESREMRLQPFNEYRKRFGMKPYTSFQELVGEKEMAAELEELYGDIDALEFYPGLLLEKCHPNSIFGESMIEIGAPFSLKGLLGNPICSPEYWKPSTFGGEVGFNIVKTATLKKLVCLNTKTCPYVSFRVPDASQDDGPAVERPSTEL

[2] = biological target: T1, Prostaglandin G/H synthase 2 (Homo sapiens) (UniProt P35354); assay: Binding affinity to COX2 (unknown origin)
T1 sequence (whole entry): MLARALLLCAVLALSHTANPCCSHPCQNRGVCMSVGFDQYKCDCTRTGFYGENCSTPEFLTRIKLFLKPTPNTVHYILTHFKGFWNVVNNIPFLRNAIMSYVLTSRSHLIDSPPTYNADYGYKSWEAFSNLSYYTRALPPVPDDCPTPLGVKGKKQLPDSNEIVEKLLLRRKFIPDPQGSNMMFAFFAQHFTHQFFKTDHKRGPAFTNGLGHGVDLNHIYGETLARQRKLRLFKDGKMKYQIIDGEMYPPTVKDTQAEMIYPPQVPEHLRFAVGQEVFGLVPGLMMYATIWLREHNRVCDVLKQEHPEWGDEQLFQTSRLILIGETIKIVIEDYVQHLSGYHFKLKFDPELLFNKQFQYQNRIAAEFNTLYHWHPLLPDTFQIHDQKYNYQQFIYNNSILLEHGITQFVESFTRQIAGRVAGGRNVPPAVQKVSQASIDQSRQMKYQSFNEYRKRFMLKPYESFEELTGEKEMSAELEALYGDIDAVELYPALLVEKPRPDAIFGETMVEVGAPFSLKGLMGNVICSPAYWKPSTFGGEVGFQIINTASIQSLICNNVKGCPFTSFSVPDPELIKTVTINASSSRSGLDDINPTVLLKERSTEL

Rattus norvegicus [3] = assay: Gastrointestinal toxicity in Rattus norvegicus Wistar (rat) assessed as induction of stomach macroscopic damage at 20 mg/kg, po measured on day 8; format: organism-based; design: dose 20 mg/kg, route oral; conditions: in vivo
Rattus norvegicus [4] = assay: Anti-inflammatory activity in Rattus norvegicus Wistar (rat) assessed as decrease in cotton pellet-induced granuloma weight at 20 mg/kg, po measured on day 8; format: functional, organism-based; design: dose 20 mg/kg
Rattus norvegicus [5] = assay: Gastrointestinal toxicity in Rattus norvegicus Wistar (rat) assessed as induction of duodenum macroscopic damage at 20 mg/kg, po measured on day 8; format: organism-based; design: dose 20 mg/kg, route oral; conditions: in vivo
Rattus norvegicus [6] = assay: Anti-inflammatory activity in Rattus norvegicus Wistar (rat) assessed as decrease in cotton pellet-induced wet weight of granuloma at 20 mg/kg, po measured on day 8; format: functional, organism-based; design: dose 20 mg/kg
Rattus norvegicus [7] = assay: Anti-inflammatory activity in Rattus norvegicus Wistar (rat) assessed as decrease in cotton pellet-induced total weight of granuloma at 20 mg/kg, po measured on day 8; format: functional, organism-based; design: dose 20 mg/kg
[8] = biological target: T2, Prostaglandin G/H synthase 1 (Ovis aries) (UniProt P05979); assay: Inhibition of Ovis aries (sheep) COX1 at 0.1 uM by colorimetric analysis
T2 sequence (whole entry): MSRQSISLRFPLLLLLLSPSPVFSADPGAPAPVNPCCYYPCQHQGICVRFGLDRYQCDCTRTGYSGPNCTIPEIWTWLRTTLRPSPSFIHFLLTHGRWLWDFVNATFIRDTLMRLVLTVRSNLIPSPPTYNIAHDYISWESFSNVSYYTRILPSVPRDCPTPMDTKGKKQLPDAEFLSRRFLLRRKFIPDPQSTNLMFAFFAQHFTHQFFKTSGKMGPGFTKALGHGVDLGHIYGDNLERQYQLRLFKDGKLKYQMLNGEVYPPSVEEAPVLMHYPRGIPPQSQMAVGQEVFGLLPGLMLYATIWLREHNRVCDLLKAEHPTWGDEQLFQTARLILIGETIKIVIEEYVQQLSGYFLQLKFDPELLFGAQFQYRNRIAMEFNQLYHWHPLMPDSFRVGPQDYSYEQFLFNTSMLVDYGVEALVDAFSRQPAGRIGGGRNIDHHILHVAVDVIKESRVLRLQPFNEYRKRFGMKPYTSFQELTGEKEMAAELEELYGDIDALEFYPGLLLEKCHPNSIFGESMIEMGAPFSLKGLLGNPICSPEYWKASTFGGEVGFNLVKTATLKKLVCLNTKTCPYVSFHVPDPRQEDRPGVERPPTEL

Rattus norvegicus [9] = assay: Anti-inflammatory activity in Rattus norvegicus Wistar (rat) assessed as decrease in cotton pellet-induced dry weight of granuloma at 20 mg/kg, po measured on day 8; format: functional, organism-based; design: dose 20 mg/kg

Activity [1]: Active
Structure (SMILES): C[C@H](Nc1nc2ccccn2c1[N+](=O)[O-])c1ccccc1

Activity [1]: Active
Structure (SMILES): CCCCN(CCCC)c1nc2ccccn2c1[N+](=O)[O-]

Activity [1]: Active
Structure (SMILES): CCCCNc1nc2ccccn2c1[N+](=O)[O-]

Activity [1]: Active
Activity [2]: Active
Structure (SMILES): O=[N+]([O-])c1c(NCc2ccccc2)nc2ccccn12
Activity (Rattus norvegicus [3]): Non-toxic
Activity (Rattus norvegicus [4]): inactive
Activity (Rattus norvegicus [5]): Non-toxic

Second part, the compound before the results:

Structure (SMILES): CC(C)Nc1nc2ccccn2c1[N+](=O)[O-]
Activity [1]: Active

Structure (SMILES): O=[N+]([O-])c1c(NC2CCCCC2)nc2ccccn12
Activity [1]: Active
Activity [2]: Active

Structure (SMILES): CC(C)N(c1nc2ccccn2c1[N+](=O)[O-])C(C)C
Activity (Rattus norvegicus [3]): Non-toxic
Activity [1]: Active
Activity (Rattus norvegicus [4]): inactive
Activity (Rattus norvegicus [5]): Non-toxic

Structure (SMILES): O=[N+]([O-])c1c(NC2CC2)nc2ccccn12
Activity (Rattus norvegicus [6]): Active
Activity (Rattus norvegicus [3]): Non-toxic
Activity [1]: Active
Activity (Rattus norvegicus [7]): Active
Activity (Rattus norvegicus [5]): Non-toxic
inhibition [8]: 3.8%
Activity (Rattus norvegicus [9]): Active

Structure (SMILES): C[C@@H](Nc1nc2ccccn2c1[N+](=O)[O-])c1ccccc1
Activity [1]: Active
Activity [2]: Active
